Data published in patent US20210222225A1, “Medium for Disk Diffusion Method to Evaluate Antibiotic Sensitivity” (priority 2018, published 2021).

What was measured:
[1] = test system: colistin-resistant (R) Acinetobacter calcoaceticus-baumannii complex (ACB) strain; assay: Colistin disk diffusion on modified Mueller-Hinton agar, ACB-R; type: cell-based
Experimental: (§1) To each MHA thus modified was added protamine (Sigma-Aldrich, St Louis, Mo., USA) at a concentration of 100 μg/ml, and solidification was performed. Then, on a surface of the medium was evenly inoculated each of colistin-susceptible (S) or -resistant (R) Acinetobacter calcoaceticus-baumannii complex (ACB) strain, Pseudomonas aeruginosa ATCC27853 strain, Escherichia coli ATCC25922 strain, and mcr-1-harboring Enterobacter aerogenes strain, and a colistin disk was placed thereon. Subsequently, a diameter of a growth inhibition zone (colistin inhibition zone), which had been formed clear by diffusion of colistin to the agar around the colistin disk, was measured.
(§2) As in Example 1, a concentration of agar particles (BD Diagnostic, Sparks, Md., USA) in Mueller-Hinton broth medium (BD Diagnostic) was adjusted to 17 g/L or 5.1 g/L that is 30% of 17 g/L. To select a concentration of protamine, which can enhance diffusion of colistin from a disk without interfering with bacterial growth, while using the protamine at various concentrations, protamine (Sigma-Aldrich, St Louis, Mo., USA) was added to the medium at concentrations of 1 mg/ml, 700 μg/ml, 400 μg/ml, 300 μg/ml, 200 μg/ml, 150 μg/ml, 100 μg/ml, and 50 μg/ml. Each medium thus modified was solidified. Then, on a surface of each medium was evenly inoculated each of colistin-susceptible (S) or -resistant (R) Acinetobacter calcoaceticus-baumannii complex (ACB) strain, Pseudomonas aeruginosa ATCC27853 strain, and mcr-1-harboring Enterobacter aerogenes strain, and a colistin disk was placed thereon. Then, it was determined whether each strain was grown, and a diameter of a growth inhibition zone, which had been formed around the disk, was measured.

[2] = test system: mcr-1-harboring Enterobacter aerogenes strain; assay: Colistin disk diffusion on modified Mueller-Hinton agar, mcr-1; type: cell-based
Experimental: as §1, §2

[3] = test system: colistin-susceptible (S) Acinetobacter calcoaceticus-baumannii complex (ACB) strain; assay: Colistin disk diffusion on modified Mueller-Hinton agar, ACB-S; type: cell-based
Experimental: as §1, §2

[4] = test system: ABA A17_S; assay: Colistin disk diffusion, guanidine hydrochloride medium, A17_S; type: cell-based, Acinetobacter baumannii; details: 30% agar
Experimental: (§3) A concentration of agar particles (BD Diagnostic, Sparks, Md., USA) in Mueller-Hinton broth medium (BD Diagnostic) was adjusted to 5.1 g/L, which is 30% of 17 g/L, and guanidine hydrochloride was added to a concentration of 500 μg/ml, 50 μg/ml, or 5 μg/ml. Then, solidification was performed. On a surface of each medium thus prepared was evenly inoculated each of colistin-susceptible (S) or -resistant (R) Acinetobacter baumannii (ABA) strain, colistin-susceptible (S) or -resistant (R) Klebsiella pnemoniae (KPN) strain, and colistin-susceptible (S) or -resistant (R) Pseudomonas aeruginosa (PAE) strain, and a colistin disk was placed thereon. Then, pictures of a growth inhibition zone, which had been formed clear, around the disk were taken for each strain, and the results are illustrated in FIGS. 8 to 10.

[5] = test system: ABA A14_S; assay: Colistin disk diffusion, guanidine hydrochloride medium, A14_S; type: cell-based, Acinetobacter baumannii; details: 30% agar
Experimental: as §3

[6] = test system: ABA A5_R; assay: Colistin disk diffusion, guanidine hydrochloride medium, A5_R; type: cell-based, Acinetobacter baumannii; details: 30% agar
Experimental: as §3

[7] = test system: KPN K4036_R; assay: Colistin disk diffusion, guanidine hydrochloride medium, K4036_R; type: cell-based, Klebsiella pnemoniae; details: 30% agar
Experimental: as §3

[8] = test system: PAE P1477_S; assay: Colistin disk diffusion, guanidine hydrochloride medium, P1477_S; type: cell-based, Pseudomonas aeruginosa; details: 30% agar
Experimental: as §3

[9] = 30% agar, protamine 1,000 μg/ml
[10] = 100% agar, protamine 1,000 μg/ml
[11] = guanidine hydrochloride 5 μg/ml
[12] = guanidine hydrochloride 50 μg/ml
[13] = guanidine hydrochloride 500 μg/ml

## colistin
[1]; 30% agar, protamine 50 μg/ml
  Disk diffusion (mm): 13 mm
[1]; 30% agar, protamine 100 μg/ml
  Diameter (mm) of colistin inhibition zone: 11 mm
  Disk diffusion (mm): 11 mm
[1]; 30% agar, protamine 150 μg/ml
  Disk diffusion (mm): 10 mm
[1]; 30% agar, protamine 200 μg/ml
  Disk diffusion (mm): 8 mm
[1]; 30% agar, protamine 300 μg/ml
  Disk diffusion (mm): 6 mm
[1]; 30% agar, protamine 400 μg/ml
  Disk diffusion (mm): 6 mm
[1]; 30% agar, protamine 700 μg/ml
  Disk diffusion (mm): 6 mm
[1]; [9]
  Disk diffusion (mm): 6 mm
[1]; 40% agar, protamine 100 μg/ml
  Diameter (mm) of colistin inhibition zone: 11 mm
[1]; 50% agar, protamine 100 μg/ml
  Diameter (mm) of colistin inhibition zone: 10 mm
[1]; 60% agar, protamine 100 μg/ml
  Diameter (mm) of colistin inhibition zone: 13 mm
[1]; 70% agar, protamine 100 μg/ml
  Diameter (mm) of colistin inhibition zone: 11 mm
[1]; 80% agar, protamine 100 μg/ml
  Diameter (mm) of colistin inhibition zone: 12 mm
[1]; 90% agar, protamine 100 μg/ml
  Diameter (mm) of colistin inhibition zone: 12 mm
[1]; 100% agar, protamine 50 μg/ml
  Disk diffusion (mm): 13 mm
[1]; 100% agar, protamine 100 μg/ml
  Diameter (mm) of colistin inhibition zone: 11 mm
  Disk diffusion (mm): 12 mm
[1]; 100% agar, protamine 150 μg/ml
  Disk diffusion (mm): 13 mm
[1]; 100% agar, protamine 200 μg/ml
  Disk diffusion (mm): 12 mm
[1]; 100% agar, protamine 300 μg/ml
  Disk diffusion (mm): 12 mm
[1]; 100% agar, protamine 400 μg/ml
  Disk diffusion (mm): 13 mm
[1]; 100% agar, protamine 700 μg/ml
  Disk diffusion (mm): 6 mm
[1]; [10]
  Disk diffusion (mm): 6 mm
[2]; 30% agar, protamine 50 μg/ml
  Disk diffusion (mm): 9 mm
[2]; 30% agar, protamine 100 μg/ml
  Diameter (mm) of colistin inhibition zone: 11 mm
  Disk diffusion (mm): 9 mm
[2]; 30% agar, protamine 150 μg/ml
  Disk diffusion (mm): 9 mm
[2]; 30% agar, protamine 200 μg/ml
  Disk diffusion (mm): 8 mm
[2]; 30% agar, protamine 300 μg/ml
  Disk diffusion (mm): 6 mm
[2]; 30% agar, protamine 400 μg/ml
  Disk diffusion (mm): 6 mm
[2]; 30% agar, protamine 700 μg/ml
  Disk diffusion (mm): 6 mm
[2]; [9]
  Disk diffusion (mm): 6 mm
[2]; 40% agar, protamine 100 μg/ml
  Diameter (mm) of colistin inhibition zone: 10 mm
[2]; 50% agar, protamine 100 μg/ml
  Diameter (mm) of colistin inhibition zone: 11 mm
[2]; 60% agar, protamine 100 μg/ml
  Diameter (mm) of colistin inhibition zone: 10 mm
[2]; 70% agar, protamine 100 μg/ml
  Diameter (mm) of colistin inhibition zone: 10 mm
[2]; 80% agar, protamine 100 μg/ml
  Diameter (mm) of colistin inhibition zone: 9 mm
[2]; 90% agar, protamine 100 μg/ml
  Diameter (mm) of colistin inhibition zone: 10 mm
[2]; 100% agar, protamine 50 μg/ml
  Disk diffusion (mm): 9 mm
[2]; 100% agar, protamine 100 μg/ml
  Diameter (mm) of colistin inhibition zone: 10 mm
  Disk diffusion (mm): 9 mm
[2]; 100% agar, protamine 150 μg/ml
  Disk diffusion (mm): 10 mm
[2]; 100% agar, protamine 200 μg/ml
  Disk diffusion (mm): 9 mm
[2]; 100% agar, protamine 300 μg/ml
  Disk diffusion (mm): 10 mm
[2]; 100% agar, protamine 400 μg/ml
  Disk diffusion (mm): 8 mm
[2]; 100% agar, protamine 700 μg/ml
  Disk diffusion (mm): 10 mm
[2]; [10]
  Disk diffusion (mm): 6 mm
[3]; 30% agar, protamine 50 μg/ml
  Disk diffusion (mm): 14 mm
[3]; 30% agar, protamine 100 μg/ml
  Diameter (mm) of colistin inhibition zone: 16 mm
  Disk diffusion (mm): 15 mm
[3]; 30% agar, protamine 150 μg/ml
  Disk diffusion (mm): 15 mm
[3]; 30% agar, protamine 200 μg/ml
  Disk diffusion (mm): 14 mm
[3]; 30% agar, protamine 300 μg/ml
  Disk diffusion (mm): 6 mm
[3]; 30% agar, protamine 400 μg/ml
  Disk diffusion (mm): 6 mm
[3]; 30% agar, protamine 700 μg/ml
  Disk diffusion (mm): 6 mm
[3]; [9]
  Disk diffusion (mm): 6 mm
[3]; 40% agar, protamine 100 μg/ml
  Diameter (mm) of colistin inhibition zone: 15 mm
[3]; 50% agar, protamine 100 μg/ml
  Diameter (mm) of colistin inhibition zone: 13 mm
[3]; 60% agar, protamine 100 μg/ml
  Diameter (mm) of colistin inhibition zone: 13 mm
[3]; 70% agar, protamine 100 μg/ml
  Diameter (mm) of colistin inhibition zone: 13 mm
[3]; 80% agar, protamine 100 μg/ml
  Diameter (mm) of colistin inhibition zone: 12 mm
[3]; 90% agar, protamine 100 μg/ml
  Diameter (mm) of colistin inhibition zone: 12 mm
[3]; 100% agar, protamine 50 μg/ml
  Disk diffusion (mm): 13 mm
[3]; 100% agar, protamine 100 μg/ml
  Diameter (mm) of colistin inhibition zone: 12 mm
  Disk diffusion (mm): 12 mm
[3]; 100% agar, protamine 150 μg/ml
  Disk diffusion (mm): 13 mm
[3]; 100% agar, protamine 200 μg/ml
  Disk diffusion (mm): 12 mm
[3]; 100% agar, protamine 300 μg/ml
  Disk diffusion (mm): 13 mm
[3]; 100% agar, protamine 400 μg/ml
  Disk diffusion (mm): 14 mm
[3]; 100% agar, protamine 700 μg/ml
  Disk diffusion (mm): 10 mm
[3]; [10]
  Disk diffusion (mm): 6 mm
[4]; [11]
  Disk diffusion (mm): 15 mm
[4]; [12]
  Disk diffusion (mm): 15 mm
[4]; [13]
  Disk diffusion (mm): 15 mm
[5]; [11]
  Disk diffusion (mm): 15 mm
[5]; [12]
  Disk diffusion (mm): 15 mm
[5]; [13]
  Disk diffusion (mm): 15 mm
[6]; [11]
  Disk diffusion (mm): 10 mm
[6]; [12]
  Disk diffusion (mm): 10 mm
[6]; [13]
  Disk diffusion (mm): 10 mm
[7]; [11]
  Disk diffusion (mm): 16 mm
[7]; [12]
  Disk diffusion (mm): 16 mm
[7]; [13]
  Disk diffusion (mm): 14 mm
[8]; [11]
  Disk diffusion (mm): 16 mm
[8]; [12]
  Disk diffusion (mm): 16 mm
[8]; [13]
  Disk diffusion (mm): 14 mm
